From publication PMC3147293 (Cell host & microbe, 2011) come the findings set out here.

The target of one data set is CPAF (Chlamydia trachomatis serovar D, UniProt O84866). Put plainly: HPLC assay of CPAF cleavage of Abz-tagged vimentin-derived peptide. It counts as biochemical.
Data set [1] has as its system Chlamydia-infected HeLa cells. Put plainly: Death of infected HeLa cells by flow cytometry of PI-stained cells. The note with it: anti-CPAF peptide at 12 hpi, with/without 40μM Z-VAD-FMK at 3 hpi. Format: cell-based.
In another data set the test system is recombinant CPAF. The conditions noted are these: ~40 ng CPAF, 48μg GST-tagged Chlamydia proteins, 37°C, 20 min; Coomassie.
The next data set deals with uninfected cells. Description: Toxicity in uninfected cells. It counts as cell-based. The conditions noted are these: data not shown.
The test system of a further data set is proteasome. Put plainly: Proteasome function in uninfected cells. It counts as cell-based. The note with it: data not shown.

Entries after “also recorded” stand apart in the source; their conditions may differ. Where no end group is shown, it is not given here.

Sequence of CPAF (O84866 276-601): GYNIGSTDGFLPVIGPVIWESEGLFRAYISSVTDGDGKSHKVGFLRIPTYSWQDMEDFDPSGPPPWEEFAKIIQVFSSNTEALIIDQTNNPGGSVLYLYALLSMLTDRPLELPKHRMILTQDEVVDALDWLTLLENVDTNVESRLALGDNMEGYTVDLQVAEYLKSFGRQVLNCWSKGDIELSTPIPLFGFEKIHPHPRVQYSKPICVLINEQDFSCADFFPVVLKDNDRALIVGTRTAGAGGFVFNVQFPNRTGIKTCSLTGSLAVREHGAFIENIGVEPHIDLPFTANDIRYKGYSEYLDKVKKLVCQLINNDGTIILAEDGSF
Sequence of CPAF (O84866 24-234): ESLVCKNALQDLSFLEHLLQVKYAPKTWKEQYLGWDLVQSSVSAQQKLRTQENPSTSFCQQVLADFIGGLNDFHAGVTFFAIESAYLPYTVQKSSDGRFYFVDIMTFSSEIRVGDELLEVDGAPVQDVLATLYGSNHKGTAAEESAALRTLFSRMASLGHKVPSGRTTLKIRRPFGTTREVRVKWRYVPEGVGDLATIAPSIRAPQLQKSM

`CC(=O)N[C@@H](CSC(=O)[C@]1([C@@H](O)C(C)C)NC(=O)[C@H](C)[C@@H]1O)C(=O)O` [Lactacystin, lactacystin, reference compound] came in with an IC50 against CPAF of 10 µM.

As for “NFALSHFRLPLSTYKEMPYVSHWAGRRRRRRRRR [scrambled control peptide]”, the “death of infected cells (PI staining)” value in data set [1] is reported as “PI staining was not seen”. The “inhibition of cleavage of GST-tagged substrates by recombinant CPAF” value with recombinant CPAF is given as “but not a scrambled control peptide; also recorded: but not the scrambled control peptide”.

In turn, “SLFYSPMVPHFWAELRNHYATSGLKRRRRRRRRR [anti-CPAF peptide]” gave an IC50 on CPAF of 0.05 µM. Moreover, the “toxicity in uninfected cells” value with uninfected cells is on record as “did not induce any obvious toxicity”. Moreover, the “alteration of proteasome function in uninfected cells” value in the data set on proteasome is on record as “did not induce any obvious toxicity or alter proteasome function in uninfected cells”.

Usually IC50 stands for the midpoint of a concentration-inhibition curve. Read a low IC50 as greater potency in that assay.
